Values quoted from earlier work in patent US10273264B2, “Cortistatin analogues and syntheses and uses thereof” (President and Fellows of Harvard College, priority 2015, dated 2019).

How the values were obtained:
[1] = system: AML; settings: in vivo; as described in PCT/US2014/72365
[2] = system: beta-catenin activated transcription; settings: reporter gene assay; as described in PCT/US2014/72365
[3] = molecular target: CDK19 (Homo sapiens, UniProt Q9BWU1); settings: reported, Cee et al. and US 20120071477
Chain of CDK19 (Q9BWU1 whole entry): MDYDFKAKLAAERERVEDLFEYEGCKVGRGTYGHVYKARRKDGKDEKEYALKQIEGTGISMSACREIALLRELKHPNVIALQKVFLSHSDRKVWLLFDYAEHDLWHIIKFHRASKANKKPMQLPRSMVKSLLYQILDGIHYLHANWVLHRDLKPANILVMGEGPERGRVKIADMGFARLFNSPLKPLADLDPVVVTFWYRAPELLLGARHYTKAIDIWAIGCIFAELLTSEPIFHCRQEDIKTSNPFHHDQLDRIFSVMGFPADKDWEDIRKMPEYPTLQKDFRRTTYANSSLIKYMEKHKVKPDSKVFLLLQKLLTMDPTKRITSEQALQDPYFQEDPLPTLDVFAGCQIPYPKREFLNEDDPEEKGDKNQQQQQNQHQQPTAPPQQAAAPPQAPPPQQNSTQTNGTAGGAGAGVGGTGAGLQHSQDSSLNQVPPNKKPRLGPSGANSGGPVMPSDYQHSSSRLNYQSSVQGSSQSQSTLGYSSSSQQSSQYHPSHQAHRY

[4] = system: Wnt/beta-catenin target genes in AML cells; settings: as described in PCT/US2014/72365
[5] = system: AML cell lines; settings: in vitro; as described in PCT/US2014/72365
[6] = system: PMF; settings: as described in PCT/US2014/72365
[7] = system: STAT1 phosphorylation; settings: as described in PCT/US2014/72365
[8] = system: cell lines derived from patients with MPNs; settings: as described in PCT/US2014/72365

## cortistatin A
[1]
  inhibition of AML progression: inhibits
[2]
  inhibition of beta-catenin activated transcription: inhibits
[3]
  binding to CDK19: bind
[4]
  inhibition of expression of putative Wnt/beta-catenin target genes: inhibits
[5]
  inhibition of proliferation of AML cell lines: inhibit
[6]
  efficacy in an in vivo model of PMF: efficacious
[7]
  inhibition of interferon-gamma-stimulated STAT1 phosphorylation: inhibits
[8]
  inhibition of proliferation of MPN patient-derived cell lines: inhibits
